# System: anti-IgM antibody BCR stimulation-induced intracellular calcium influx in Ramos cells
# Assay: Inhibition test on the change of Ramos intracellular calcium ion
# Type: cell-based
# Details: Fluo-8NW fluorescence, anti-IgM 2.0 μg/mL, FIG. 1
# Protocol: The intracellular BTK inhibition by the compounds of the present invention was verified by measuring the effects of the compounds of the present invention on “anti-IgM antibody BCR stimulation-induced intracellular calcium influx”. One day before measurement, the Ramos cells were cultured as being suspended again at a cell density of 1.0×10^6 cells/mL in a fresh growth medium (growth medium as used in Test Example 2), and the cells were recovered next day by centrifugation and washed with RPMI-1640 medium supplemented with 5% penicillin-streptomycin (Nacalai Tesque, Inc.) (Medium 1). […] The Ramos intracellular calcium ion concentration was measured as a fluorescent intensity of the calcium indicator Fluo-8NW using a microplate reader (SynergyH1) (Ex/Em=490/525 nm) After measuring the baseline for 15 seconds, 50 μL of the anti-IgM antibody (Invitrogen, #H15100) diluted with Medium 2 to 10.4 μg/mL was added to each well described above (final concentration of 2.0 μg/mL) to effect BCR stimulation, and then the measurement was continued further for 150 seconds.
compound,measurement,value
"Cn1cc(Nc2nc(N)nc(-c3ccnc(-n4ccc5cc(C6CC6)cc(F)c5c4=O)c3CO)n2)cc1C#N [Example 3, 4-({4-Amino-6-[2-(6-cyclopropyl-8-fluoro-1-oxoisoquinolin-2(1H)-yl)-3-(hydroxymethyl)pyridin-4-yl]-1,3,5-triazin-2-yl}amino)-1-methyl-1H-pyrrole-2-carbonitrile]",inhibition of anti-IgM antibody BCR stimulation-induced intracellular calcium ion variation,in a concentration-dependent manner from a low concentration

# — patent publication US20160221991A1, “NOVEL TRIAZINE DERIVATIVE” (CARNA BIOSCIENCES, INC., priority 2013, published 2016)
